From patent publication US9802927B2, “Oxadiazine compounds and methods of use thereof” (Denali Therapeutics, Inc., priority 2015, dated 2017) come the findings set out here.

The first assay relates to Aβ42. In words: In vitro cell screening assay in H4 cells expressing human APP751: Aβ42 by sandwich ELISA. The format is cell-based. As to conditions: Homo sapiens, compounds 0.003-10 μM, incubated overnight (16-18 h), sandwich ELISA of supernatant. The protocol:
Human neuroglioma H4 cells were transfected with a pcDNA3.1 plasmid expressing human wild type APP751 cDNA and a stable cell line was generated using G418 selection. Cells were plated at 15,000 cells/well in Costar 96-well plates and placed at 37° C. and 5% CO2. Six hours after plating, cells were washed three times with Pro293™ chemically defined medium, followed by addition of compounds (0.003-10 μM, final DMSO concentration of 0.33%). Plates were incubated overnight (16-18 h) and supernatant was removed for quantification of Aβ peptides by sandwich ELISA. Cytotoxicity was evaluated using Cell-Titer 96W AQueous One Solution Cell Proliferation Assay according to the manufacturer's protocol.
Aβ peptide levels were quantified by sandwich ELISA. 96-well plates were coated with C-terminal specific Aβ antibodies recognizing either Aβ37, Aβ38, Aβ40, Aβ42, Aβ43 or a N-terminal specific Aβ antibody to detect Aβ 1-x. Plates were then blocked overnight at 4° C. with 1% bovine serum albumin (BSA) in PBS-T. Plates were washed and 100 μl of cultured cell supernatant or synthetic Aβ peptide standards and a detection antibody (4G8-HRP) were applied to the blocked plate and incubated overnight at 4° C. The next day, wells were washed before the addition of detection substrate (TMB peroxidase). Plates were then read for absorbance at 450 nm on a Molecular Devices SpectraMax M5e Microplate Reader.
Compound-treated samples were normalized to samples treated with DMSO alone (no inhibition) and to samples treated with DAPT. EC50 values were calculated from values reported as percent of DMSO controls using nonlinear regression, based on a sigmoidal dose response (variable slope) model. GraphPAD software from Prism used for calculation.
In general, EC50 refers to the concentration giving half of the maximal effect. Read a low EC50 as an effect from little substance. `COc1nc(C2=NOCC(C3CCC(F)(F)CC3)N2)ccc1-n1cnc(C)c1` (single isomer, unassigned; (+)) [Example 139B, (+)-5-(4,4-difluorocyclohexyl)-3-(6-methoxy-5-(4-methyl-1H-imidazol-1-yl)pyridin-2-yl)-5,6-dihydro-4H-1,2,4-oxadiazine] had an EC50 of 201 nM.

The assay is the same for the next values; noted with them: compounds 0.003-10 μM, incubated overnight (16-18 h), sandwich ELISA of supernatant.
As for `COc1nc(C2=NOCC(c3ccc(F)c(F)c3)N2)ccc1-n1cnc(C)c1` (single isomer, unassigned; (+)) [Example 75B, (+)-5-(3,4-difluorophenyl)-3-(6-methoxy-5-(4-methyl-1H-imidazol-1-yl)pyridin-2-yl)-5,6-dihydro-4H-1,2,4-oxadiazine], the concentration for a half-maximal effect (EC50) was 92.2 nM. Take `COc1nc(C2=NOCC(c3cc4ccc(Cl)cc4o3)N2)ccc1-n1cnc(C)c1` (single isomer, unassigned; (+)) [Example 78B, (+)-5-(6-chlorobenzofuran-2-yl)-3-(6-methoxy-5-(4-methyl-1H-imidazol-1-yl)pyridin-2-yl)-5,6-dihydro-4H-1,2,4-oxadiazine]: the response was half-maximal at 8.9 nM (EC50).

`COc1nc(C2=NOCC(c3cc(F)cc(F)c3)N2)ccc1-n1cnc(C)c1` (single isomer, unassigned; (+)) [Example 81B, (+)-5-(3,5-difluorophenyl)-3-(6-methoxy-5-(4-methyl-1H-imidazol-1-yl)pyridin-2-yl)-5,6-dihydro-4H-1,2,4-oxadiazine] displayed an EC50 of 43.1 nM. Same read-out and setting: as for `COc1nc(C2=NOCC(c3cc4cc(F)ccc4o3)N2)ccc1-n1cnc(C)c1` (single isomer, unassigned; (+)) [Example 84B, (+)-5-(5-fluorobenzofuran-2-yl)-3-(6-methoxy-5-(4-methyl-1H-imidazol-1-yl)pyridin-2-yl)-5,6-dihydro-4H-1,2,4-oxadiazine], the figure is 29.7 nM. The same measure, in the same setting: as for `COc1nc(C2=NOCC(c3ccc(Cl)c(C)c3)N2)ccc1-n1cnc(C)c1` (single isomer, unassigned; (+)) [Example 86B, (+)-5-(4-chloro-3-methylphenyl)-3-(6-methoxy-5-(4-methyl-1H-imidazol-1-yl)pyridin-2-yl)-5,6-dihydro-4H-1,2,4-oxadiazine], the figure is 10.4 nM. On the same count and under the same terms, the figure for `COc1nc(C2=NOCC(c3cc4cccc(F)c4o3)N2)ccc1-n1cnc(C)c1` (single isomer, unassigned; (+)) [Example 89B, (+)-5-(7-fluorobenzofuran-2-yl)-3-(6-methoxy-5-(4-methyl-1H-imidazol-1-yl)pyridin-2-yl)-5,6-dihydro-4H-1,2,4-oxadiazine] is 44.2 nM; for `COc1nc(C2=NOCC(c3cc(F)c(F)c(F)c3)N2)ccc1-n1cnc(C)c1` (single isomer, unassigned; (+)) [Example 91B, (+)-3-(6-methoxy-5-(4-methyl-1H-imidazol-1-yl)pyridin-2-yl)-5-(3,4,5-trifluorophenyl)-5,6-dihydro-4H-1,2,4-oxadiazine] it is 36.5 nM. The compound `COc1nc(C2=NOCC(c3ccc(OC(F)F)cc3)N2)ccc1-n1cnc(C)c1` (single isomer, unassigned; (+)) [Example 93B, (+)-5-(4-(difluoromethoxy)phenyl)-3-(6-methoxy-5-(4-methyl-1H-imidazol-1-yl)pyridin-2-yl)-5,6-dihydro-4H-1,2,4-oxadiazine] registered an EC50 of 73 nM. `COc1nc(C2=NOCC(c3cc4c(Cl)cccc4o3)N2)ccc1-n1cnc(C)c1` (single isomer, unassigned; (+)) [Example 96B, (+)-5-(4-chlorobenzofuran-2-yl)-3-(6-methoxy-5-(4-methyl-1H-imidazol-1-yl)pyridin-2-yl)-5,6-dihydro-4H-1,2,4-oxadiazine] registered an EC50 of 12.7 nM.

Consider `COc1nc(C2=NOCC(c3cc4c(F)cccc4o3)N2)ccc1-n1cnc(C)c1` (single isomer, unassigned; (+)) [Example 99A, (+)-5-(4-fluorobenzofuran-2-yl)-3-(6-methoxy-5-(4-methyl-1H-imidazol-1-yl)pyridin-2-yl)-5,6-dihydro-4H-1,2,4-oxadiazine], for which the EC50 was found to be 856 nM. Compound `COc1nc(C2=NOCC(c3oc4ccc(F)cc4c3C)N2)ccc1-n1cnc(C)c1` (single isomer, unassigned; (+)) [Example 101B, (+)-5-(5-fluoro-3-methylbenzofuran-2-yl)-3-(6-methoxy-5-(4-methyl-1H-imidazol-1-yl)pyridin-2-yl)-5,6-dihydro-4H-1,2,4-oxadiazine] showed a concentration for a half-maximal effect (EC50) of 10.8 nM. `COc1nc(C2=NOCC(c3cn(C)c4cc(F)c(C(F)(F)F)cc34)N2)ccc1-n1cnc(C)c1` (single isomer, unassigned; (+)) [Example 104B, (+)-5-(6-fluoro-1-methyl-5-(trifluoromethyl)-1H-indol-3-yl)-3-(6-methoxy-5-(4-methyl-1H-imidazol-1-yl)pyridin-2-yl)-5,6-dihydro-4H-1,2,4-oxadiazine] returned an EC50 of 4.6 nM. On the same count and under the same terms, the figure for `COc1nc(C2=NOCC(c3ccc(Cl)c(F)c3)N2)ccc1-n1cnc(C)c1` (single isomer, unassigned; (+)) [Example 106B, (+)-5-(4-chloro-3-fluorophenyl)-3-(6-methoxy-5-(4-methyl-1H-imidazol-1-yl)pyridin-2-yl)-5,6-dihydro-4H-1,2,4-oxadiazine] is 22.9 nM; for `COc1nc(C2=NOCC(c3ccc(F)c(Cl)c3)N2)ccc1-n1cnc(C)c1` (single isomer, unassigned; (+)) [Example 108B, (+)-5-(3-chloro-4-fluorophenyl)-3-(6-methoxy-5-(4-methyl-1H-imidazol-1-yl)pyridin-2-yl)-5,6-dihydro-4H-1,2,4-oxadiazine] it is 23.2 nM.

The compound `COc1nc(C2=NOCC(c3cc(F)cc(Cl)c3)N2)ccc1-n1cnc(C)c1` (single isomer, unassigned; (+)) [Example 111B, (+)-5-(3-chloro-5-fluorophenyl)-3-(6-methoxy-5-(4-methyl-1H-imidazol-1-yl)pyridin-2-yl)-5,6-dihydro-4H-1,2,4-oxadiazine] registered an EC50 of 22.6 nM. The same measure, in the same setting: the figure for `COc1nc(C2=NOCC(c3cccc(C(F)(F)F)c3)N2)ccc1-n1cnc(C)c1` (single isomer, unassigned; (+)) [Example 113B, (+)-3-(6-methoxy-5-(4-methyl-1H-imidazol-1-yl)pyridin-2-yl)-5-(3-(trifluoromethyl)phenyl)-5,6-dihydro-4H-1,2,4-oxadiazine] is 43 nM; for `COc1nc(C2=NOCC(c3ccc(C4CC4)cc3)N2)ccc1-n1cnc(C)c1` (single isomer, unassigned; (+)) [Example 116B, (+)-5-(4-cyclopropylphenyl)-3-(6-methoxy-5-(4-methyl-1H-imidazol-1-yl)pyridin-2-yl)-5,6-dihydro-4H-1,2,4-oxadiazine] it is 38.8 nM; for `COc1nc(C2=NOCC(c3cc(Cl)cc(Cl)c3)N2)ccc1-n1cnc(C)c1` (single isomer, unassigned; (+)) [Example 118B, (+)-5-(3,5-dichlorophenyl)-3-(6-methoxy-5-(4-methyl-1H-imidazol-1-yl)pyridin-2-yl)-5,6-dihydro-4H-1,2,4-oxadiazine] it is 9.9 nM.

`COc1nc(C2=NOCC(c3nn(C)c4ccccc34)N2)ccc1-n1cnc(C)c1` (single isomer, unassigned; (+)) [Example 124B, (+)-3-(6-methoxy-5-(4-methyl-1H-imidazol-1-yl)pyridin-2-yl)-5-(1-methyl-1H-indazol-3-yl)-5,6-dihydro-4H-1,2,4-oxadiazine] registered a concentration giving a half-maximal response (EC50) of 54.8 nM. Same read-out and setting: as for `COc1nc(C2=NOCC(c3cccc(C4CC4)c3)N2)ccc1-n1cnc(C)c1` (single isomer, unassigned; (+)) [Example 127B, (+)-5-(3-cyclopropylphenyl)-3-(6-methoxy-5-(4-methyl-1H-imidazol-1-yl)pyridin-2-yl)-5,6-dihydro-4H-1,2,4-oxadiazine], the figure is 23 nM.

In turn, `COc1nc(C2=NOCC(c3ccccc3C)N2)ccc1-n1cnc(C)c1` (single isomer, unassigned; (+)) [Example 131A, (+)-3-(6-methoxy-5-(4-methyl-1H-imidazol-1-yl)pyridin-2-yl)-5-(o-tolyl)-5,6-dihydro-4H-1,2,4-oxadiazine] registered an EC50 of 102 nM.

Compound `COc1nc(C2=NOCC(c3cccc(C#N)c3)N2)ccc1-n1cnc(C)c1` (single isomer, unassigned; (+)) [Example 141B, (+)-3-(3-(6-methoxy-5-(4-methyl-1H-imidazol-1-yl)pyridin-2-yl)-5,6-dihydro-4H-1,2,4-oxadiazin-5-yl) benzonitrile] had an EC50 of 214 nM. The same measure, in the same setting: the figure for `COc1nc(C2=NOCC(C3CCOCC3)N2)ccc1-n1cnc(C)c1` (single isomer, unassigned; (+)) [Example 143B, (+)-3-(6-methoxy-5-(4-methyl-1H-imidazol-1-yl)pyridin-2-yl)-5-(tetrahydro-2H-pyran-4-yl)-5,6-dihydro-4H-1,2,4-oxadiazine] is 2460 nM.
